Experimental data reported in ChEMBL document CHEMBL5113438, “Discovery of highly potent and selective CRBN-recruiting EGFRL858R/T790M degraders in vivo” (Eur J Med Chem, 2022).

Key:
A549 = assay: Antiproliferative activity against human A549 cells expressing wild type EGFR incubated for 72 hrs by CCK-8 assay; type: functional, cell-based; conditions: A549, 72 h
NCI-H1299 [1] = assay: Antiproliferative activity against human NCI-H1299 cells expressing wild type EGFR incubated for 72 hrs by CCK-8 assay; type: functional, cell-based; conditions: NCI-H1299, 72 h
NCI-H1975 [2] = assay: Antiproliferative activity against human NCI-H1975 cells expressing EGFR L858R/T790M incubated for 72 hrs by CCK-8 assay; type: functional, cell-based; conditions: NCI-H1975, 72 h
[3] = Selectivity ratio IC50 for human NCI-H1299 cells expressing wild type EGFR to human NCI-H1975 cells expressing EGFR L858R/T790M; type: functional
HMEC = assay: Cytotoxicity activity against HMEC cells upto 300 uM incubated for 72 hrs by CCK-8 assay; type: toxicity, cell-based; conditions: human
L02 = assay: Cytotoxicity activity against human L02 cells upto 300 uM incubated for 72 hrs by CCK-8 assay; type: toxicity, cell-based; conditions: l02, 72 h
HEK-293T = assay: Cytotoxicity activity against HEK293T cells upto 300 uM incubated for 72 hrs by CCK-8 assay; type: toxicity, cell-based; conditions: human
[4] = target: Protein cereblon/Epidermal growth factor receptor (Homo sapiens, UniProt P00533+Q96SW2, L858R/T790M); assay: Protac activity at CRBN/EGFR L858R/T790M mutant in human NCI-H1975 cells assessed as induction of EGFR degradation incubated for 72 hrs by Western blot analysis; type: cell-based
[5] = test system: Epidermal growth factor receptor (Homo sapiens), P00533 [L858R,T790M]; assay: Inhibition of EGFR L858R/T790M mutant phosphorylation in human NCI-H1975 cells at 1 uM measured after 8 hrs by Western blot assay; type: cell-based
[6] = test system: Epidermal growth factor receptor (Homo sapiens), P00533 [L858R,T790M]; assay: Inhibition of EGFR L858R/T790M mutant phosphorylation in human NCI-H1975 cells preincubated under serum starvation for 8 hrs followed by compound addition measured after 48 hrs by Western blot analysis; type: cell-based; conditions: dose 10-1000 nM, DDE = dose-dependent effect
[7] = target: Serine/threonine-protein kinase AKT (Homo sapiens) (UniProt P31751+Q9Y243+P31749); assay: Inhibition of Akt phosphorylation in human NCI-H1975 cells preincubated under serum starvation for 8 hrs followed by compound addition measured after 48 hrs by Western blot analysis; type: cell-based; conditions: dose 10-1000 nM, DDE = dose-dependent effect
NCI-H1975 [8] = assay: Inhibition of ERK phosphorylation in human NCI-H1975 cells preincubated under serum starvation for 8 hrs followed by compound addition measured after 48 hrs by Western blot analysis; type: cell-based; conditions: dose 10-1000 nM, DDE = dose-dependent effect
NCI-H1975 [9] = assay: Induction of apoptosis in human NCI-H1975 cells assessed as viable cells at 1.0 uM incubated for 48 hrs by AnnexinV-FITC/propidium iodide staining based flow cytometry analysis (reference value: 96.2 % ); type: functional; conditions: read-out: Activity
NCI-H1975 [10] = assay: Induction of apoptosis in human NCI-H1975 cells assessed as early apoptotic cells at 0.1 uM incubated for 48 hrs by AnnexinV-FITC/propidium iodide staining based flow cytometry analysis (reference value: 0.11 % ); type: functional
NCI-H1975 [11] = assay: Induction of apoptosis in human NCI-H1975 cells assessed as early apoptotic cells at 1.0 uM incubated for 48 hrs by AnnexinV-FITC/propidium iodide staining based flow cytometry analysis (reference value: 0.11 % ); type: functional
NCI-H1975 [12] = assay: Induction of apoptosis in human NCI-H1975 cells assessed as late apoptotic cells at 0.1 uM incubated for 48 hrs by AnnexinV-FITC/propidium iodide staining based flow cytometry analysis (reference value: 1.35 % ); type: functional
NCI-H1975 [13] = assay: Induction of apoptosis in human NCI-H1975 cells assessed as late apoptotic cells at 1.0 uM incubated for 48 hrs by AnnexinV-FITC/propidium iodide staining based flow cytometry analysis (reference value: 1.35 % ); type: functional
NCI-H1975 [14] = assay: Induction of apoptosis in human NCI-H1975 cells assessed as necrotic cells at 0.1 uM incubated for 48 hrs by AnnexinV-FITC/propidium iodide staining based flow cytometry analysis (reference value: 3.28 % ); type: functional
NCI-H1299 [15] = assay: Induction of apoptosis in human NCI-H1299 cells assessed as early apoptotic cells at 0.1 uM incubated for 48 hrs by AnnexinV-FITC/propidium iodide staining based flow cytometry analysis (reference value: 0.11 % ); type: functional
NCI-H1299 [16] = assay: Induction of apoptosis in human NCI-H1299 cells assessed as early apoptotic cells at 1.0 uM incubated for 48 hrs by AnnexinV-FITC/propidium iodide staining based flow cytometry analysis (reference value: 0.11 % ); type: functional
NCI-H1299 [17] = assay: Induction of apoptosis in human NCI-H1299 cells assessed as late apoptotic cells at 0.1 uM incubated for 48 hrs by AnnexinV-FITC/propidium iodide staining based flow cytometry analysis (reference value: 1.53 % ); type: functional
NCI-H1299 [18] = assay: Induction of apoptosis in human NCI-H1299 cells assessed as late apoptotic cells at 1.0 uM incubated for 48 hrs by AnnexinV-FITC/propidium iodide staining based flow cytometry analysis (reference value: 1.53 % ); type: functional
NCI-H1975 [19] = assay: Induction of cell cycle arrest in human NCI-H1975 cells assessed as accumulation of cells in G2/M phase by PI staining based flow cytometry method; type: functional; conditions: dose 0.1-1 µM, DDE = dose-dependent effect
NCI-H1975 [20] = assay: Antitumor activity against human NCI-H1975 cells xenografted in […] mouse assessed as tumor growth inhibition at 10 mg/kg, ip administered once daily for 24 days relative to control; type: functional; conditions: NCI-H1975, 576 h, time 24 day, read-out: TGI
[21] = Toxicity in BALB/c mouse xenografted with human NCI-H1975 cells assessed as drug tolerability at 10 mg/kg, ip administered once daily for 24 days; type: organism-based; conditions: in vivo, 576 h, time 24 day
[22] = Half life in Sprague-Dawley rat at 1 mg/kg, iv measured upto 24 hrs by LC-MS/MS analysis; type: ADME, organism-based; conditions: in vivo
[23] = Half life in Sprague-Dawley rat at 10 mg/kg, ip measured upto 24 hrs by LC-MS/MS analysis; type: ADME, organism-based; conditions: in vivo
[24] = Tmax in Sprague-Dawley rat at 10 mg/kg, ip measured upto 24 hrs by LC-MS/MS analysis; type: ADME, organism-based; conditions: in vivo
[25] = Cmax in Sprague-Dawley rat at 10 mg/kg, ip measured upto 24 hrs by LC-MS/MS analysis; type: ADME, organism-based; parameters: time < 24 hrs, dose 10 mg/kg, route ip; conditions: in vivo
[26] = AUC (0 to t) in Sprague-Dawley rat at 10 mg/kg, ip measured upto 24 hrs by LC-MS/MS analysis; type: ADME, organism-based; parameters: dose 10 mg/kg, time < 24 hrs, route ip; conditions: in vivo
[27] = AUC (0 to infinity) in Sprague-Dawley rat at 1 mg/kg, iv measured upto 24 hrs by LC-MS/MS analysis; type: ADME, organism-based; parameters: dose 1 mg/kg, time < 24 hrs, route iv; conditions: in vivo
[28] = AUC (0 to infinity) in Sprague-Dawley rat at 10 mg/kg, ip measured upto 24 hrs by LC-MS/MS analysis; type: ADME, organism-based; parameters: time < 24 hrs, dose 10 mg/kg, route ip; conditions: in vivo
[29] = Volume of distribution at steady state in Sprague-Dawley rat at 1 mg/kg, iv measured upto 24 hrs by LC-MS/MS analysis; type: ADME, organism-based; conditions: in vivo, read-out: Vdss
[30] = Clearance in Sprague-Dawley rat at 1 mg/kg, iv measured upto 24 hrs by LC-MS/MS analysis; type: ADME, organism-based; conditions: in vivo
[31] = Plasma protein binding in rat assessed as unbound fraction at 1 uM incubated for 4 hrs by rapid equilibrium dialysis method; type: ADME, cell-free; conditions: read-out: PPB (converted)

Chain of Serine/threonine-protein kinase AKT (Homo sapiens) (P31749 whole entry, looked up): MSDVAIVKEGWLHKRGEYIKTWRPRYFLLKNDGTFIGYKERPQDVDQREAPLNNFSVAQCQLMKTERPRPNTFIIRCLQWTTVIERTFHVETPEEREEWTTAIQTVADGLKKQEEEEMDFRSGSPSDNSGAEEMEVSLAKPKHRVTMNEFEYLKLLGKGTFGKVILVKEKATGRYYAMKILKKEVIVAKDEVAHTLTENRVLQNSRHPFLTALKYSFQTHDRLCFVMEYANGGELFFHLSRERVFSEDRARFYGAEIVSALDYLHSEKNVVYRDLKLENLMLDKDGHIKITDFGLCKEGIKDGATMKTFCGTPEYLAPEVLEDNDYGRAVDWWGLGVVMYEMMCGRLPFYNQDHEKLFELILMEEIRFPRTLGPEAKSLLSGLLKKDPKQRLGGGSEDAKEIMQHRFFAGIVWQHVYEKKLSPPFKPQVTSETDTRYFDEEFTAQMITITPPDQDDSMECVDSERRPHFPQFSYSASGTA
Chain of Serine/threonine-protein kinase AKT (Homo sapiens) (P31751 whole entry, looked up): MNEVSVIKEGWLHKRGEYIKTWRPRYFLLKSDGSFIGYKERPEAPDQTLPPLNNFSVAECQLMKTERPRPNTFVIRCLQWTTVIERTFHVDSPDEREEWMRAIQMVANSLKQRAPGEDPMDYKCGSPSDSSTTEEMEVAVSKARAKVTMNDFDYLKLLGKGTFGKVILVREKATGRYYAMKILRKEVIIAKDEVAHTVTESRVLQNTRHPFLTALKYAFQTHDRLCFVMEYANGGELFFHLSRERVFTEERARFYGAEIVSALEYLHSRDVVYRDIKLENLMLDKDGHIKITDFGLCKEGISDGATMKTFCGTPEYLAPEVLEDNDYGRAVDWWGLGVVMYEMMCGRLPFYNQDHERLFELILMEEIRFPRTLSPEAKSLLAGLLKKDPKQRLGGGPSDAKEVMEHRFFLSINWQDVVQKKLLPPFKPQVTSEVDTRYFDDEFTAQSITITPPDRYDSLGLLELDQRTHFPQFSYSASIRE
Chain of Serine/threonine-protein kinase AKT (Homo sapiens) (Q9Y243 whole entry, looked up): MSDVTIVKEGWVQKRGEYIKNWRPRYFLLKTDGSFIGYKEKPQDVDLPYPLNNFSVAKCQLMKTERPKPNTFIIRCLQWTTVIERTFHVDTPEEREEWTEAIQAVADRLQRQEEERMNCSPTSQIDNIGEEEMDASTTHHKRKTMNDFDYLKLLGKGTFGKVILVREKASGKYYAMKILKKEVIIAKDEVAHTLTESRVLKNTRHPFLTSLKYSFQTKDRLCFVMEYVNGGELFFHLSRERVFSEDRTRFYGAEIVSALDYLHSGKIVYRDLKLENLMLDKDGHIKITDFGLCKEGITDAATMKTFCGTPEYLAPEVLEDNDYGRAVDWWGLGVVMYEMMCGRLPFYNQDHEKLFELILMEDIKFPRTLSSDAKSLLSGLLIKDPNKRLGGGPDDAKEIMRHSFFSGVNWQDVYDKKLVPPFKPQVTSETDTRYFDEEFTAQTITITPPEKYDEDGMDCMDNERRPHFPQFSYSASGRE

SMILES | IC50 (A549) [nM] | IC50 (NCI-H1299 [1]) [nM] | IC50 (NCI-H1975 [2]) [nM] | Ratio IC50 [3] | Activity (HMEC) | Activity (L02) | Activity (HEK-293T) | EC50 [4] [nM] | inhibition (INH) [5] [%] | inhibition [6] | inhibition [7] | inhibition (NCI-H1975 [8]) | viability at 1 µM (NCI-H1975 [9]) [%] | Activity (NCI-H1975 [10]) [%] | Activity (NCI-H1975 [11]) [%] | Activity (NCI-H1975 [12]) [%] | Activity (NCI-H1975 [13]) [%] | Activity (NCI-H1975 [14]) [%] | Activity (NCI-H1299 [15]) [%] | Activity (NCI-H1299 [16]) [%] | also measured
C#CCN(CCC(=O)Nc1cccc2c1CN(C1CCC(=O)NC1=O)C2=O)CCN(C)c1cc(OC)c(Nc2nccc(-c3cn(C)c4ccccc34)n2)cc1NC(=O)C=C (stereo not given) | > 100000 | > 100000 | 58.1 | 1721 | Non-Toxic | Non-Toxic | Non-Toxic | 35.5 | 58 | Dde | Dde | Dde | 50.8 | 1.51 | 0.55 | 6.59 | 24.3 | 0.96 | 0.11 | 0.08 | Activity (NCI-H1299 [17]): 1.79%; Activity (NCI-H1299 [18]): 2.15%; Activity (NCI-H1975 [19]): Dde; inhibition in vivo at 10 mg/kg (NCI-H1975 [20]): 55.2%; Activity [21]: Non-Toxic; half-life [22]: 2.29 h; half-life [23]: 2.17 h; Tmax [24]: 4.67 h; Cmax [25]: 197 ng/mL; AUC(0-t) at 24 h [26]: 1540 ng·h/mL; AUC(0-inf) ([27]; Sprague-Dawley): 461 ng·h/mL; AUC(0-inf) [28]: 1610 ng·h/mL; Vd [29]: 7.38 L/kg; clearance ([30]; Sprague-Dawley): 37.1 mL/min/kg; fraction unbound at 4 h, 1 µM [31]: 0.001
C#CCN(CCCC(=O)Nc1cccc2c1CN(C1CCC(=O)NC1=O)C2=O)CCN(C)c1cc(OC)c(Nc2nccc(-c3cn(C)c4ccccc34)n2)cc1NC(=O)C=C (stereo not given) | > 100000 | > 100000 | 46.8 | 2137 | Non-Toxic | Non-Toxic | Non-Toxic | 13.2 | 56 | Dde | Dde | Dde | 69 | 0.23 | 0.72 | 4.8 | 25.1 | 9.3 | 0.22 | 0.082 | Activity (NCI-H1299 [17]): 1.27%; Activity (NCI-H1299 [18]): 0.37%; Activity (NCI-H1975 [19]): Dde; inhibition in vivo at 10 mg/kg (NCI-H1975 [20]): 63.7%; Activity [21]: Non-Toxic; half-life [22]: 2.64 h; half-life [23]: 1.85 h; Tmax [24]: 4.5 h; Cmax [25]: 128 ng/mL; AUC(0-t) at 24 h [26]: 971 ng·h/mL; AUC ([27]; 24 h): 973 ng·h/mL; AUC(0-inf) [28]: 973 ng·h/mL; Vd [29]: 7.87 L/kg; CL ([30]; iv, 1 mg/kg, 24 h): 34.55 mL/min/kg; fraction unbound at 4 h, 1 µM [31]: 0.002
